{
  "source": "patent US20070078083A1",
  "about": "“MODULATION OF NEUORGENESIS BY HDac INHIBITION” (BrainCells, Inc., priority 2005, published 2007)",
  "key": {"[1]": {"system": "human neural stem cells (hNSCs)", "assay": "Astrocyte differentiation of hNSCs (GFAP staining)", "format": "cell-based", "details": "cultured hNSCs", "description": "Results are shown in FIGS. 2 and 11, which show the lack of astrocyte differentiation of human neural stem cells in the presence of trichostatin A and valproic acid, respectively."}, "[2]": {"system": "human neural stem cells (hNSCs)", "assay": "Neuronal differentiation of human neural stem cells (TUJ-1 staining)", "format": "cell-based", "details": "for differentiation along a neuronal lineage (in words): hNSCs"}, "[3]": {"system": "KA, AMPA, and NMDA iGlu receptors", "details": "cited from earlier work"}, "[4]": {"system": "rat NeuroD1, GluR2, NFH and GAP43 promoters", "assay": "In vitro rodent gene reporter assay in rNSC", "format": "cell-based", "details": "2 days incubation", "description": "Briefly, cultured rodent neural stem cells (rNSC) were transfected by electroporation with a vectors containing promoters specific for the rat NeuroD1, GluR2, NFH and GAP43 genes linked to the fluorescent reporter protein DsRed. All gene reporter constructs were cloned in the same lentiviral vector backbone, and mixed with Nucleofactor solution for electroporation. A GFP vector control was used in parallel to visualize effectiveness of electroporation. Transfected rNSCs were then suspended in test media containing varying concentrations of the HDac inhibitors trichostatin A, valproic acid, MS-275 or apicidin, and a mixture of 0.5 μg renilla luciferase and 5 μg promoter-specific […] luciferase. The cells were incubated in 5% CO2 at 37° C. for 2 days, and then lysed, whereupon the cell extracts were read on a Tecan Genios Pro reader to detect the promoter-specific activation of the reporter constructs."}, "[5]": {"system": "human neural stem cells (hNSCs)", "assay": "Anti-proliferative effects on human neural stem cell clusters (area over fourteen days)", "format": "cell-based", "details": "hNSC clusters after 14 days; basal media control 164%", "description": "7, 2006 (incorporated by reference). […] Cell clusters were imaged and their area measured over fourteen days. […] As the results described in Example 3 indicate, reduction in growth is not due to increased toxicity or reduced survival, and therefore the observed reduced growth of the cell clusters results from decreased proliferation of human neural stem cells in the presence of the HDac inhibitor."}, "[6]": {"system": "neural stem and/or progenitor cells in the dentate gyrus", "assay": "In vivo chronic dosing study, BrdU-positive cells in dentate gyrus", "parameters": "species or system rat", "details": "male Fischer F344 rats, 300 mg/kg for 28 days, vs vehicle", "method": "Male Fischer F344 rats were treated with 300 mg/kg of valproic acid for 28 days, and then anesthetized and killed by transcardial perfusion of 4% paraformaldehyde at day 28. Brains were rapidly removed and stored in 4% paraformaldehyde for 24 hours and then equilibrated in phosphate buffered 30% sucrose. Free floating 40 micron sections were collected on a freezing microtome and stored in cyroprotectant. Antibodies against BrdU and cells types of interest (e.g., neurons, astrocytes, oligodendrocytes, endothelial cells) were used for detection of cell survival and differentiation. […] The proportion of BrdU cells displaying a lineage-specific phenotype was determined by scoring the co-localization of cell phenotype markers with BrdU using confocal microscopy. […] When possible, 100 or more BrdU-positive cells were scored for each maker per animal. Each cell was manually examined in first full “z”-dimension and only those cells for which the nucleus was unambiguously associated with the lineage-specific marker were scored as positive. The total number of BrdU-labeled cells per hippocampal granule cell layer and subgranular zone were determined using diaminobenzadine stained tissues. Overestimation was corrected using the Abercrombie method for nuclei with empirically determined average diameter of 13 um within a 40 um section."}, "human mGlu3": {"biological_target": "human mGlu3 (Homo sapiens, UniProt Q14832)", "sequence (Q14832 23-879)": "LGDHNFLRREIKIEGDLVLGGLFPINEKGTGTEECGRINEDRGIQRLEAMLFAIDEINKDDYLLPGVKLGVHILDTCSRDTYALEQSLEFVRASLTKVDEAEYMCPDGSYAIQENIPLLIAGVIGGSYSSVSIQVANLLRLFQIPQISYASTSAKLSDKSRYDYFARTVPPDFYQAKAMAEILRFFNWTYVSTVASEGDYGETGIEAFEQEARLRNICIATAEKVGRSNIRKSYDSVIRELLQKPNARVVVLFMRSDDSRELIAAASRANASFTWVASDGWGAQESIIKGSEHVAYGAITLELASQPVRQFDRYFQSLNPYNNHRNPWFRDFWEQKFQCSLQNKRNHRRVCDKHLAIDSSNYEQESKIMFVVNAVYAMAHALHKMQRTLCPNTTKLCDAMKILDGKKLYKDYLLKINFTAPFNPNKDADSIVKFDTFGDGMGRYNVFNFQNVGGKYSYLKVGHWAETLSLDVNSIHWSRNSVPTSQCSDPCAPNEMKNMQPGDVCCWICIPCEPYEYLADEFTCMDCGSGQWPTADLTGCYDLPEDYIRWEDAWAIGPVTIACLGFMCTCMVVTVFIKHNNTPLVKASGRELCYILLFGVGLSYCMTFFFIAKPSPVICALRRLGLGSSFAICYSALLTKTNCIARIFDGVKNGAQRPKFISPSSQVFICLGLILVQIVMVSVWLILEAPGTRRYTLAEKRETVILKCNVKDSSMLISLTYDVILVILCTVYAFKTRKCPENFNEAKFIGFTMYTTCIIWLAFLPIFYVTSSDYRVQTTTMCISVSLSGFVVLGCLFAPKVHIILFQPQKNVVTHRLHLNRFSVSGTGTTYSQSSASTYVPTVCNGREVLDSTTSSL", "details": "agonist; low nanomolar range; read-out: EC50 values against human mGlu3 receptors in vitro; cited from earlier work"}, "human mGlu2": {"biological_target": "human mGlu2 (Homo sapiens, UniProt Q14416)", "sequence (Q14416 19-872)": "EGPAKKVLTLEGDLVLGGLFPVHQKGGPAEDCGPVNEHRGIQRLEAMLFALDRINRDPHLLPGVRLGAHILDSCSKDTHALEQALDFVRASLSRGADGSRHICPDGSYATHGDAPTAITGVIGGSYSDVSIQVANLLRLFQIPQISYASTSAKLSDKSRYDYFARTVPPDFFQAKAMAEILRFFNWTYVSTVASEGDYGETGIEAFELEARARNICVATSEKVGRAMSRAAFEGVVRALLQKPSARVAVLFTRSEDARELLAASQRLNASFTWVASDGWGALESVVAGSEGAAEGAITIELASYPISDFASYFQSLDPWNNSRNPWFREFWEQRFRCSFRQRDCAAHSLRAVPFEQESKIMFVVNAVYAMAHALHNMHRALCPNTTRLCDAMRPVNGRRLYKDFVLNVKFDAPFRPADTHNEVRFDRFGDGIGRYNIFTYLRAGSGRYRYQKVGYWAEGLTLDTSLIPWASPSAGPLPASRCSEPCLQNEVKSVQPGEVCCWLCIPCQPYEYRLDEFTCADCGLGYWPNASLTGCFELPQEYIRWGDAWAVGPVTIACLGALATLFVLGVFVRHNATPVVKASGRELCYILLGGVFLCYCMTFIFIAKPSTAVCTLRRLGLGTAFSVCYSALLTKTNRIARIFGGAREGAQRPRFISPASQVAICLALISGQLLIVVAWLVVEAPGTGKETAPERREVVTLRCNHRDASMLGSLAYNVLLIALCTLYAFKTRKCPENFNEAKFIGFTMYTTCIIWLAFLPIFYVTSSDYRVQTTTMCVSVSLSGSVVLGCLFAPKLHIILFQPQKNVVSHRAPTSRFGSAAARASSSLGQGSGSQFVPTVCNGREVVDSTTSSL", "details": "agonist; low nanomolar range; read-out: EC50 values against human mGlu2 receptors in vitro; cited from earlier work"}, "mGluR2": {"biological_target": "mGluR2 (Homo sapiens, UniProt Q14416)", "sequence (Q14416 19-872)": "as above", "details": "antagonist; read-out: IC50 value against mGluR2; cited from earlier work"}, "mGluR3": {"biological_target": "mGluR3 (Homo sapiens, UniProt Q14832)", "sequence (Q14832 23-879)": "as the sequence (Q14832 23-879) above", "details": "antagonist; read-out: IC50 value against mGluR3; cited from earlier work"}, "[7]": {"system": "Group I or Group III receptors", "details": "at sub-mM concentrations; cited from earlier work"}},
  "data": [
    {"smiles": "CC(/C=C/C(=O)NO)=C\\[C@@H](C)C(=O)c1ccc(N(C)C)cc1", "note": "[Trichostatin A, trichostatin A]", "values": [
      {"measurement": "EC50", "setting": "[1]; highest concentration tested approximately 31.6 nM", "result": "> 0.0316", "unit": "µM"},
      {"measurement": "EC50", "setting": "[2]; cultured hNSCs, two experiments (Run A, Run B), normalized to neuronal positive control", "result": "~0.00345", "unit": "µM"},
      {"measurement": "differentiation along a neuronal lineage (in words)", "setting": "[2]", "result": "permits differentiation of cells along a neuronal lineage"}
    ]},
    {"smiles": "N[C@](CC1c2ccccc2Oc2ccccc21)(C(=O)O)[C@H]1C[C@@H]1C(=O)O", "note": "[LY341495, (2S)-2-amino-2-(1S,2S-2-carboxycycloprop-1-yl)-3-(xanth-9-yl) propanoic acid]", "values": [
      {"measurement": "activity against KA, AMPA, and NMDA iGlu receptors", "setting": "[3]", "result": "substantially inactive"}
    ]},
    {"smiles": "CCCC(CCC)C(=O)O", "note": "[Valproic acid, 2-propylpentanoic acid]", "values": [
      {"measurement": "expression of promoters for the neurofilament high (NFH) and growth associated protein 43 (GAP43) genes", "setting": "[4]", "result": "promote expression"},
      {"measurement": "neurogenic activity, activation of the rat NeuroD1, GluR2, NFH and GAP43 promoters", "setting": "[4]", "result": "neurogenic"},
      {"measurement": "EC50", "setting": "[1]; Homo sapiens, Neural stem cell, highest tested concentration approximately 10.0 μM", "result": "> 10", "unit": "µM"},
      {"measurement": "area occupied by cells, percent of the starting area", "setting": "[5]", "result": 86, "unit": "%"},
      {"measurement": "differentiation along a neuronal lineage (in words)", "setting": "[2]", "result": "continues to promote neuronal differentiation"},
      {"measurement": "proliferation in the dentate gyrus (proportion of BrdU-positive cells)", "setting": "[6]", "result": "significantly decreased proliferation"}
    ]},
    {"smiles": "N[C@@]1(C(=O)O)CO[C@H]2[C@H](C(=O)O)[C@H]21", "note": "[LY379268, (−)-2-Oxa-4-aminobicyclohexane-4,6-dicarboxylic acid]", "values": [
      {"measurement": "EC50", "setting": "human mGlu3", "result": "< 0.01", "unit": "µM"},
      {"measurement": "EC50", "setting": "human mGlu2", "result": "< 0.01", "unit": "µM"}
    ]},
    {"smiles": "Nc1ccccc1NC(=O)c1ccc(CNC(=O)OCc2cccnc2)cc1", "note": "[MS-275]", "values": [
      {"measurement": "expression of promoters for the neurofilament high (NFH) and growth associated protein 43 (GAP43) genes", "setting": "[4]", "result": "promote expression"},
      {"measurement": "neurogenic activity, activation of the rat NeuroD1, GluR2, NFH and GAP43 promoters", "setting": "[4]", "result": "neurogenic"}
    ]},
    {"smiles": "NC1(C(=O)O)CCc2cc(P(=O)(O)O)ccc21", "note": "(racemic) [APICA, (RS)-1-amino-5-phosphonoindan-1-carboxylic acid]", "values": [
      {"measurement": "IC50", "setting": "mGluR2", "result": "~30", "unit": "µM"},
      {"measurement": "IC50", "setting": "mGluR3", "result": "~30", "unit": "µM"},
      {"measurement": "activity against Group I or Group III receptors", "setting": "[7]", "result": "no appreciable activity"}
    ]}
  ]
}
